Measurements: the supplement of paper PMC12592484

How the values were obtained:
Experiment in all cases: drug sensitivity score (DSS2, normalised partial AUC of dose-response, 72 h CellTiter-Glo viability) (DSS (dimensionless)); higher = more sensitive (stronger growth inhibition / cytotoxicity); extreme values may be limits of the assay
WPMY-1 = tested on: WPMY-1
Method in brief: (§1)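 Five doses spanning a 10,000-fold range were pre-dispensed into 384-well plates, into which low-passage primary prostate cancer-associated fibroblasts, PF179T, WPMY-1, LNCaP and 22Rv1 cells were seeded. After 72 h, CellTiter-Glo 2.0 luminescence measured viability, scaled to vehicle and positive-control wells. Higher values of the drug sensitivity score, a BREEZE-computed partial area under the fitted logistic dose–response curve divided by the log of the upper asymptote, mean greater sensitivity.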

LNCAP = tested on: LNCAP
Method in brief: as §1

PF179T = tested on: PF179T
Method in brief: as §1

CAF#6 = tested on: CAF#6 (primary prostate cancer-associated fibroblasts of iCAF-like type)
Method in brief: as §1

CAF#7 = tested on: CAF#7 (primary prostate cancer-associated fibroblasts of myCAF-like type)
Method in brief: as §1

CAF#3 = tested on: CAF#3 (primary prostate cancer-associated fibroblasts of myCAF-like type)
Method in brief: as §1

CAF#2 = tested on: CAF#2 (primary prostate cancer-associated fibroblasts of iCAF-like type)
Method in brief: as §1

CAF#4 = tested on: CAF#4 (primary prostate cancer-associated fibroblasts of iCAF-like type)
Method in brief: as §1

CAF#1 = tested on: CAF#1 (primary prostate cancer-associated fibroblasts of myCAF-like type)
Method in brief: as §1

CAF#5 = tested on: CAF#5 (primary prostate cancer-associated fibroblasts of myCAF-like type)
Method in brief: as §1

22Rv1 = tested on: 22Rv1
Method in brief: as §1

Row | Compound | drug sensitivity score (WPMY-1) | drug sensitivity score (LNCAP) | drug sensitivity score (PF179T) | drug sensitivity score (CAF#6) | drug sensitivity score (CAF#7) | drug sensitivity score (CAF#3) | drug sensitivity score (CAF#2) | drug sensitivity score (CAF#4) | drug sensitivity score (CAF#1) | drug sensitivity score (CAF#5) | drug sensitivity score (22Rv1)
1 | COc1cc(Nc2ncc(F)c(Nc3ccc4c(n3)N(COP(=O)(O)O)C(=O)C(C)(C)O4)n2)cc(OC)c1OC [Fostamatinib] (tested concentration range 0.2-2500 nM) | 4.4 | 4.4 | 7.3 | 5.6 | 7 | 6.6 | 8.4 | 5.3 | 7.7 | 7.2 | 0
2 | Cc1cc(Nc2ncc(Cl)c(Nc3ccccc3S(=O)(=O)C(C)C)n2)c(OC(C)C)cc1C1CCNCC1 [Ceritinib] (tested concentration range 0.2-2500 nM) | 1 | 4.2 | 0.9 | 1.2 | 2.3 | 3 | 5.1 | 2.4 | 4.6 | 2.6 | 3.1
3 | C/C=C1\NC(=O)[C@H]2CSSCC/C=C/[C@H](CC(=O)N[C@H](C(C)C)C(=O)N2)OC(=O)[C@H](C(C)C)NC1=O [Romidepsin] (tested concentration range 0.1-1000 nM) | 30 | 35.5 | 22.5 | 26.6 | 24.4 | 23.1 | 23.4 | 21.4 | 23.1 | 25 | 27.9
4 | COC(=O)c1ccc2c(c1)[nH]c1ncnc(NCCCN3CCCCC3)c12 [UM729] (tested concentration range 1-10000 nM) | 3.9 | 3.3 | 0.1 | 0 | 0.2 | 0.3 | 0 | 0 | 0 | 1.6 | 3.6
5 | CCN(CC)CCN(Cc1ccc(-c2ccc(C(F)(F)F)cc2)cc1)C(=O)Cn1c(SCc2ccc(F)cc2)nc(=O)c2c1CCC2 [Darapladib] (tested concentration range 0.1-1000 nM) | 1.3 | 0 | 0 | 0 | 0 | 0.1 | 0 | 1 | 0 | 0.7 | 3.7
6 | COc1cc(Nc2ncc3c(n2)-c2ccc(Cl)cc2C(c2c(F)cccc2OC)=NC3)ccc1C(=O)O [Alisertib] (tested concentration range 1-10000 nM) | 16.3 | 9.6 | 7.6 | 1.2 | 3.5 | 3.3 | 9.4 | 4.5 | 4.9 | 6 | 0
7 | CC(C)C[C@H](NC(=O)CNC(=O)c1cc(Cl)ccc1Cl)B(O)O [Ixazomib] (tested concentration range 0.1-1000 nM) | 16.5 | 12.9 | 4.9 | 6 | 7.4 | 7.2 | 6.3 | 5.8 | 4.6 | 7.3 | 10.7
8 | CCCN(CCC)C(=O)C1=Cc2ccc(-c3ccc(C(=O)N4CCCC4)cc3)cc2N=C(N)C1 [Motolimod] (tested concentration range 1-10000 nM) | 0.3 | 3.2 | 0 | 1.5 | 0 | 1.7 | 1 | 0 | 0.4 | 0 | 1.1
9 | COc1ccc(C[C@H](NC(=O)[C@H](C)NC(=O)CN2CCOCC2)C(=O)N[C@@H](Cc2ccccc2)C(=O)C2(C)CO2)cc1 (stereo in doubt) [ONX-0914] (tested concentration range 1-10000 nM) | 23.4 | 19.3 | 14.8 | 15 | 15.6 | 15.5 | 16 | 10.3 | 14 | 18.3 | 18
10 | C[C@]12CC[C@H](O)CC1=CC[C@@H]1[C@@H]2CC[C@]2(C)C(c3cccnc3)=CC[C@@H]12 [Abiraterone] (tested concentration range 0.5-5000 nM) | 0 | 1.3 | 0 | 0 | 0 | 0 | 0 | 0 | 0 | 1.5 | 0
11 | N#Cc1ccc(COC[C@H]2O[C@@H](n3c(NCc4ccc(Cl)c(Cl)c4)nc4c(N)ncnc43)[C@H](O)[C@@H]2O)cc1 (tested concentration range 1-10000 nM) | 1.9 | 5 | 4.4 | 1.8 | 4.5 | 0.6 | 5.7 | 5.7 | 3.7 | 4.7 | 6.9
12 | CO[C@H]1C[C@@H]2CC[C@@H](C)[C@@](O)(O2)C(=O)C(=O)N2CCCC[C@H]2C(=O)O[C@H]([C@H](C)C[C@@H]2CC[C@@H](OC(=O)C(C)(CO)CO)[C@H](OC)C2)CC(=O)[C@H](C)/C=C(\C)[C@@H](O)[C@@H](OC)C(=O)[C@H](C)C[C@H](C)/C=C/C=C/C=C/1C [Temsirolimus] (tested concentration range 0-100 nM) | 6.6 | 11 | 9.8 | 5.5 | 6 | 4 | 10.1 | 9.9 | 10.6 | 11.8 | 16.7
13 | O=S(=O)(c1cccc2c(O)nccc12)N1CCCNCC1 [Hydroxyfasudil] (tested concentration range 1.9-19000 nM) | 0.3 | 0 | 0 | 0 | 0 | 0 | 0 | 0 | 0 | 0 | 0
14 | C=CCc1cccc(/C=N/NC(=O)CN2CCN(Cc3ccccc3)CC2)c1O [PAC-1] (tested concentration range 1-10000 nM) | 6.9 | 3.9 | 3.9 | 1.9 | 2 | 1.9 | 3.6 | 0.2 | 0.3 | 1.5 | 4.4
15 | COC(=O)C[C@](O)(CCCC(C)(C)O)C(=O)O[C@@H]1C(OC)=C[C@]23CCCN2CCc2cc4c(cc2[C@H]13)OCO4 [Omacetaxine] (tested concentration range 1-10000 nM) | 25.2 | 29.2 | 22 | 20 | 21.4 | 20.6 | 21.9 | 15.3 | 19.1 | 18.7 | 35
16 | Cc1sc2c(c1C)C(c1ccc(Cl)cc1)=N[C@@H](CC(=O)Nc1ccc(O)cc1)c1nnc(C)n1-2 [Birabresib] (tested concentration range 1-10000 nM) | 11.9 | 19.8 | 2.8 | 5.1 | 3 | 11.8 | 9.9 | 3.4 | 9.4 | 3.1 | 13.4
17 | O=c1ncn2nc(Sc3ccc(F)cc3F)ccc2c1-c1c(Cl)cccc1Cl [Neflamapimod] (tested concentration range 1-10000 nM) | 0 | 1.2 | 0 | 0 | 0 | 0 | 0 | 0 | 0 | 0 | 0.8
18 | CCc1cncnc1N1CCN(Cc2nc3ccc(C(F)(F)F)cc3[nH]2)CC1 (tested concentration range 1-10000 nM) | 1.7 | 4 | 0 | 0.5 | 0.9 | 7.6 | 2.4 | 1.1 | 1.8 | 1.6 | 2.9
19 | CN[C@@H](C)C(=O)N[C@H](C(=O)N1CCC[C@H]1c1nc(C(=O)c2ccc(F)cc2)cs1)C1CCCCC1 [NVP-LCL161] (tested concentration range 2.5-25000 nM) | 3 | 3.7 | 0 | 1.9 | 2 | 1.2 | 0.4 | 0.3 | 0 | 0 | 3.4
20 | COc1cc(CCc2cc(NC(=O)c3ccc(N4CC(C)NC(C)C4)cc3)n[nH]2)cc(OC)c1 (stereo not drawn) [AZD4547] (tested concentration range 0.1-1000 nM) | 0.2 | 0.3 | 3.5 | 5.8 | 13.1 | 6.7 | 2.5 | 0.6 | 1.1 | 1.3 | 0
21 | CC[C@]1(O)C[C@@H]2CN(CCc3c([nH]c4ccccc34)[C@@](C(=O)OC)(c3cc4c(cc3OC)N(C)[C@H]3[C@@](O)(C(=O)OC)[C@H](OC(C)=O)[C@]5(CC)C=CCN6CC[C@]43[C@@H]65)C2)C1 [Vinblastine] (tested concentration range 0.1-1000 nM) | 11.9 | 24.7 | 5.9 | 5.1 | 7.5 | 2.8 | 5.6 | 3.6 | 4.1 | 5.2 | 7.7
22 | CO[C@H]1C[C@@H]2CC[C@@H](C)[C@@](O)(O2)C(=O)C(=O)N2CCCC[C@H]2C(=O)O[C@H]([C@H](C)C[C@@H]2CC[C@@H](O)[C@H](OC)C2)CC(=O)[C@H](C)/C=C(\C)[C@@H](O)[C@@H](OC)C(=O)[C@H](C)C[C@H](C)/C=C/C=C/C=C/1C [Sirolimus] (tested concentration range 0-100 nM) | 4 | 2.5 | 5.6 | 3.4 | 3.7 | 2.2 | 6.8 | 4.9 | 6.5 | 7.4 | 9.3
23 | CC(C)n1cnc2c(NCCc3ccc(O)cc3)nc(-c3csc4ccccc34)nc21 [StemRegenin 1] (tested concentration range 1-10000 nM) | 2.1 | 5 | 0 | 0.6 | 0 | 3.5 | 1.7 | 2.6 | 1.5 | 1.7 | 2.5
